Measurements as given in patent publication US20040258668A1 (priority 2001, published 2004).
Read-outs that look alike come from different tables or passages of the source.

Tests used:
[1] = tested on: LLC-MK2 cells infected with SeV18+SEAP/ΔF-GFP; experiment: LDH release (cell damage) from SeV-infected LLC-MK2 cells; conditions: for cell damage (LDH release): agents added two days after infection, at the concentration tested
Description: (§1) LLC-MK2 (monkey kidney-derived cells) were seeded into 6-well plates at a concentration of 5×10^5 cells/well, and then cultured in MEM (Gibco-BRL, Rockville, Md.) media containing 10% fetal bovine serum (FBS: BioWhittaker, Walkersville, Md.) at 37° C. for 24 hours in a 5% CO2 incubator. Cells were washed with PBS and infected with F-deleted SeV encoding secretion-type alkaline phosphatase (SEAP)) and green fluorescence protein (GFP) genes (SeV18+SEAP/ΔF-GFP: FIG. 1) at MOI=3. […] After infection, cell culture was continued in MEM media without serum. […] Media from each culture was collected and subsequently replaced with fresh media containing the same content every two days. Heme agglutination activity (HA activity) was measured as an indicator of virion formation; lactose dehydrogenase (LDH) quantification was measured as an indicator of cell damage; and SEAP activity was measured as an indicator of the expression level of genes carried on the vector.
(§2) HA activity was measured using the method described by Kato et al., (Kato, A. et al. , Genes Cells 1, 569-579 (1996)). That is, virus-containing media was subjected to two-fold serial dilution in a 96 round bottom well plate, such that each well contained 50 ul samples. A 50 ul solution of preserved chicken blood (COSMO BIO Co., Ltd., Tokyo, Japan), diluted to 1% with PBS, was added to each well and mixed. The mixture was incubated at 4° C. for one hour. Agglutination of red blood cells was observed, and HA activity was calculated by selecting the highest virus dilution in which agglutination was still observed. Additionally, 1 HA U was considered to be equal to 1×10^6 viruses, and values were shown as a number of viruses. […] LDH quantification was conducted using a Cytotoxicity Detection Kit (Roche, Basel, Switzerland) according to the methodin the kit. […] SEAP activities were measured using a Reporter Assay Kit-SEAP (TOYOBO, Osaka, Japan) according to kit method.
(§3) That is, LLC-MK2 was plated in a 6-well plate at a concentration of 5×10^5 cells/well, and incubated in MEM media containing 10% fetal bovine serum at 37° C. for 24 hours in a 5% CO2 incubator. […] After infection, culture was continued in MEM media without serum. […] Cultured media was recovered every two days, and at this time fresh media, either with or without 5 mM aspirin, was added. The cultures were treated with aspirin for either 0, 2, 4, 6, or 8 days, and then examined. The recovered culture media was analyzed for HA activity, LDH quantification, and SEAP activity. GFP expression and cell damage were also periodically examined using fluorescence microscopy.
(§4) The experiment was conducted as described in Example 1: LLC-MK2 was plated onto a 6-well plate at a concentration of 5×10^5 cells/well, and incubated in MEM media containing 10% fetal bovine serum at 37° C. for 24 hours in a 5% CO2 incubator. […] After infection, cells were cultured in MEM media without serum for two days, then cultured in MEM media (without serum) containing agents at the recorded concentrations. Cultured media was collected every two days and replaced with a same volume of fresh media. HA activity analysis and LDH quantitative analysis were performed on recovered culture media. GFP expression and cell damage were also periodically examined using fluorescence microscopy.

[2] = tested on: Sendai virus (SeV) vector SeV18+SEAP/ΔF-GFP; experiment: HA activity (virion formation) in culture media of SeV-infected LLC-MK2 cells; conditions: for SeV transcription and replication (HA activity): agents added two days after infection, SeV18+SEAP/ΔF-GFP or SeV18+/ΔF-GFP, MOI=3; for SeV transcription and replication with NO-associated agents: agent added two days after infection
Description: as §1, §2, §3, §4

Cytomegarovirus = conditions: Albrecht et al. (1987); cited from earlier work
[3] = tested on: LLC-MK2 cells infected with SeV18+SEAP/ΔF-GFP; experiment: GFP expression and cell damage by fluorescence microscopy; conditions: 5 mM aspirin
Description: LLC-MK2 (monkey kidney-derived cells) were seeded into 6-well plates at a concentration of 5×10^5 cells/well, and then cultured in MEM (Gibco-BRL, Rockville, Md.) media containing 10% fetal bovine serum (FBS: BioWhittaker, Walkersville, Md.) at 37° C. for 24 hours in a 5% CO2 incubator. Cells were washed with PBS and infected with F-deleted SeV encoding secretion-type alkaline phosphatase (SEAP)) and green fluorescence protein (GFP) genes (SeV18+SEAP/ΔF-GFP: FIG. 1) at MOI=3. […] After infection, cell culture was continued in MEM media without serum. Two days after infection, the media was replaced with MEM media (without serum) containing 0.625, 1.25, 2.5, and 5 mM of aspirin, or no aspirin. […] Heme agglutination activity (HA activity) was measured as an indicator of virion formation; lactose dehydrogenase (LDH) quantification was measured as an indicator of cell damage; and SEAP activity was measured as an indicator of the expression level of genes carried on the vector.
GFP expression level and cell damage were also periodically observed using fluorescence microscopy.
That is, LLC-MK2 was plated in a 6-well plate at a concentration of 5×10^5 cells/well, and incubated in MEM media containing 10% fetal bovine serum at 37° C. for 24 hours in a 5% CO2 incubator. […] The recovered culture media was analyzed for HA activity, LDH quantification, and SEAP activity. […]

[4] = Aspirin toxicity (LD50, estimated toxicity limit); assay type: in vivo; conditions: ⅙ of LD50
[5] = tested on: SEAP gene carried on SeV18+SEAP/ΔF-GFP
Description: LLC-MK2 (monkey kidney-derived cells) were seeded into 6-well plates at a concentration of 5×10^5 cells/well, and then cultured in MEM (Gibco-BRL, Rockville, Md.) media containing 10% fetal bovine serum (FBS: BioWhittaker, Walkersville, Md.) at 37° C. for 24 hours in a 5% CO2 incubator. Cells were washed with PBS and infected with F-deleted SeV encoding secretion-type alkaline phosphatase (SEAP)) and green fluorescence protein (GFP) genes (SeV18+SEAP/ΔF-GFP: FIG. 1) at MOI=3. […] After infection, cell culture was continued in MEM media without serum. Two days after infection, the media was replaced with MEM media (without serum) containing 0.625, 1.25, 2.5, and 5 mM of aspirin, or no aspirin. Media from each culture was collected and subsequently replaced with fresh media containing the same content every two days.
SEAP activities were measured using a Reporter Assay Kit-SEAP (TOYOBO, Osaka, Japan) according to kit method.

[6] = tested on: Vesicular Stomatitis virus (VSV); conditions: Chen et al., Virology 276 (2000); cited from earlier work
[7] = 5 mM aspirin, regardless of length of treatment
[8] = 0.625-5 mM aspirin added two days after infection

O=C(O)Cc1ccccc1Nc1c(Cl)cccc1Cl [Diclofenac sodium]
cell damage (LDH release) [1]: enhanced cell damage
SeV transcription and replication (HA activity) [2]: suppressed SeV transcription and replication

CC(C(=O)O)c1ccc(-c2ccccc2)c(F)c1 (centres unmarked) [Flurbiprofen]
cell damage (LDH release) [1]: only moderately reduced cell damage
SeV transcription and replication (HA activity) [2]: suppressed SeV transcription and replication

CC(C(=O)O)c1cccc(C(=O)c2ccccc2)c1 (centres unmarked) [Ketoprofen]
cell damage (LDH release) [1]: reduced cell damage
SeV transcription and replication (HA activity) [2]: suppressed SeV transcription and replication

Cc1cccc(Nc2ccccc2C(=O)O)c1C [Mefenamic acid]
cell damage (LDH release) [1]: enhanced cell damage
SeV transcription and replication (HA activity) [2]: suppressed SeV transcription and replication

COc1ccc(Cc2nccc3cc(OC)c(OC)cc23)cc1OC [Papaverin]
cell damage (LDH release) [1]: enhanced cell damage
Cytomegarovirus multiplication (Cytomegarovirus): suppress Cytomegarovirus multiplication
SeV transcription and replication (HA activity) [2]: suppressed SeV transcription and replication

CC(=O)Oc1ccccc1C(=O)O [aspirin, acetylsalicylic acid]
nature of suppression of SeV transcription and replication ([3]; after withdrawal): transient
GFP expression and cell damage during aspirin treatment ([3]; treatment 0-8 days): GFP expression is low and cell damage is not observed
cell damage (LDH) ([1]; 5 mM aspirin): Almost no cell damage was observed
time after end of aspirin treatment until LDH increases [1, 7]: four
LDH release [1, 8]: concentration-dependent decrease in LDH release
cell damage (LDH release) [1]: reducing cytotoxicity
estimated toxicity limit [4]: 300 mg/kg
SEAP activity ([5]; 5 mM aspirin): most significant decrease in activity
SEAP activity [5, 8]: concentration-dependent decrease in SEAP activity
HA activity (virion formation) ([2]; 5 mM aspirin added two days after infection, MOI=3, LLC-MK2): suppressed the increase in HA activity
time after end of aspirin treatment until HA activity and virion formation increase [2, 7]: two
HA activity during aspirin treatment ([2]; 5 mM aspirin, treatment 0, 2, 4, 6 or 8 days): increase in HA activity was low during aspirin treatment
SeV transcription and replication (HA activity) [2]: suppressed SeV transcription and replication
multiplication of VSV [6]: suppressed the multiplication of the Vesicular Stomatitis virus (VSV)

COc1ccc2c(c1)c(CC(=O)O)c(C)n2C(=O)c1ccc(Cl)cc1 [indomethacin, Indomethacin]
cell damage (LDH release) [1]: only moderately reduced cell damage
SeV transcription and replication (HA activity) [2]: suppressed SeV transcription and replication

O=[N+]([O-])O[C@H]1CO[C@H]2[C@@H]1OC[C@H]2O[N+](=O)[O-] [isosorbide dinitrate]
SeV transcription and replication with NO-associated agents [2]: did not significantly suppress transcription and replication

O=C(NCCO[N+](=O)[O-])c1cccnc1 [nicorandil]
SeV transcription and replication with NO-associated agents [2]: did not significantly suppress transcription and replication
